In the CheMixHub viscosity set:

Experiment: xn = mol fraction of the nth substance listed

C=CC#N + CCO
viscosity [mPa·s], 101.33 kPa
Conditions | x1 = 0.1008 | x1 = 0.1009 | x1 = 0.2017 | x1 = 0.3022 | x1 = 0.403 | x1 = 0.5025 | x1 = 0.6044 | x1 = 0.7032 | x1 = 0.8006 | x1 = 0.8993
298.15 K | – | 0.859 | 0.704 | 0.593 | 0.513 | 0.458 | 0.415 | 0.384 | 0.363 | 0.348
303.15 K | – | 0.787 | 0.648 | 0.551 | 0.48 | 0.431 | 0.392 | 0.364 | 0.345 | 0.332
308.15 K | 0.724 | – | 0.602 | 0.513 | 0.451 | 0.405 | 0.371 | 0.347 | 0.329 | 0.318

CC(=O)CC(C)=O + CCO
303.15 K, 101 kPa
Conditions | viscosity [mPa·s]
x1 = 0.05 | 0.896
x1 = 0.0997 | 0.825
x1 = 0.3 | 0.702
x1 = 0.5 | 0.655
x1 = 0.6989 | 0.644
x1 = 0.9 | 0.651
x1 = 0.948 | 0.657

CC(C)(N)CO + CCO
313.15 K, 100 kPa
Conditions | viscosity [mPa·s]
x1 = 0.03 | 0.91
x1 = 0.054 | 1.05
x1 = 0.11 | 1.3
x1 = 0.26 | 2.32

CCCCC(C)O (centres undefined) + CCO
298.15 K, 101.33 kPa
Conditions | viscosity [mPa·s]
x2 = 0.1065 | 3.783
x2 = 0.2102 | 3.485
x2 = 0.3167 | 3.115
x2 = 0.4096 | 2.827
x2 = 0.5036 | 2.512
x2 = 0.6033 | 2.16
x2 = 0.7079 | 1.836
x2 = 0.8023 | 1.572
x2 = 0.9063 | 1.301

CCCCOC(=O)c1ccccc1C(=O)OCCCC + CCO
303.15 K, 101.33 kPa
Conditions | viscosity [mPa·s]
x1 = 0.0982 | 1.555
x1 = 0.1991 | 2.302
x1 = 0.4046 | 4.211
x1 = 0.5046 | 5.31
x1 = 0.5634 | 6.002
x1 = 0.694 | 7.761
x1 = 0.807 | 9.476
x1 = 0.8877 | 10.91
x1 = 0.9316 | 11.68

C=CC#N + CCOC(C)=O
viscosity [mPa·s]
Conditions | 298.15 K | 303.15 K | 308.15 K
101.3 kPa, x1 = 0.0974 | – | 0.3987 | –
101.3 kPa, x1 = 0.201 | – | 0.394 | –
101.3 kPa, x1 = 0.302 | – | 0.3883 | –
101.3 kPa, x1 = 0.3997 | – | 0.3824 | –
101.3 kPa, x1 = 0.4964 | – | 0.3739 | –
101.3 kPa, x1 = 0.5946 | – | 0.3654 | –
101.3 kPa, x1 = 0.6974 | – | 0.3546 | –
101.3 kPa, x1 = 0.7978 | – | 0.3413 | –
101.3 kPa, x1 = 0.9018 | – | 0.3263 | –
101.33 kPa, x1 = 0.1002 | 0.442 | 0.419 | 0.398
101.33 kPa, x1 = 0.2025 | 0.429 | 0.403 | 0.383
101.33 kPa, x1 = 0.3034 | 0.42 | 0.397 | 0.377
101.33 kPa, x1 = 0.4047 | 0.408 | 0.387 | 0.369
101.33 kPa, x1 = 0.5034 | 0.4 | 0.379 | 0.361
101.33 kPa, x1 = 0.5994 | 0.39 | 0.368 | 0.352
101.33 kPa, x1 = 0.7007 | 0.381 | 0.364 | 0.351
101.33 kPa, x1 = 0.8021 | 0.369 | 0.358 | 0.344
101.33 kPa, x1 = 0.9003 | 0.358 | 0.349 | 0.328

Cn1ccnc1 + CCOC(C)=O
viscosity [mPa·s], 101 kPa
Conditions | 298.15 K | 308.15 K | 318.15 K
x1 = 0.0518 | 0.4901 | 0.4509 | 0.417
x1 = 0.1042 | 0.5183 | 0.4734 | 0.4355
x1 = 0.2036 | 0.5796 | 0.524 | 0.4789
x1 = 0.3106 | 0.661 | 0.5919 | 0.5383
x1 = 0.4006 | 0.7306 | 0.6504 | 0.587
x1 = 0.4976 | 0.826 | 0.7281 | 0.6494
x1 = 0.6011 | 0.9571 | 0.8342 | 0.7376
x1 = 0.6961 | 1.09 | 0.9437 | 0.8289
x1 = 0.8012 | 1.266 | 1.082 | 0.9423
x1 = 0.9 | 1.468 | 1.245 | 1.074
x1 = 0.9496 | 1.57 | 1.331 | 1.144

C=CC#N + CN(C)C=O
303.15 K, 101.3 kPa
Conditions | viscosity [mPa·s]
x1 = 0.099 | 0.7313
x1 = 0.2027 | 0.6911
x1 = 0.2977 | 0.6444
x1 = 0.4005 | 0.5998
x1 = 0.497 | 0.5516
x1 = 0.5957 | 0.5028
x1 = 0.6984 | 0.4518
x1 = 0.798 | 0.4041
x1 = 0.895 | 0.3581

CCCCC(C)O (centres undefined) + CN(C)C=O
viscosity [mPa·s], 101 kPa
Conditions | x2 = 0.1088 | x2 = 0.1532 | x2 = 0.2402 | x2 = 0.3448 | x2 = 0.441 | x2 = 0.5601 | x2 = 0.6546 | x2 = 0.7434 | x2 = 0.843 | x2 = 0.9374
298.15 K | 3.26 | 3.03 | 2.7 | 2.41 | 2.17 | 1.87 | 1.63 | 1.4 | 1.17 | 0.97
303.15 K | 2.67 | 2.49 | 2.23 | 1.99 | 1.79 | 1.56 | 1.39 | 1.23 | 1.05 | 0.87
308.15 K | 2.19 | 2.01 | 1.8 | 1.61 | 1.47 | 1.3 | 1.18 | 1.06 | 0.93 | 0.8
313.15 K | 1.7 | 1.53 | 1.36 | 1.23 | 1.13 | 1.03 | 0.96 | 0.89 | 0.81 | 0.73
